Test [1] has as its system TAMs/MDSCs. In words: IL-10 ELISA assay after in vitro TAMs/MDSCs screening. The format is cell-based, mouse. The following applies: co-culture with drug; absorbance at 492 nm. The procedure: (§1) 10 million 4T1 cells in 300 μL PBS were injected into the peritoneal cavity. Peritoneal ascites were collected between day 7 and day 10 by peritoneal lavage. […] Cells were counted and ready for flow cytometry staining and in vitro screening.
Cells isolated from the peritoneal model were re-suspended in completed RPMI 1640 medium supplemented with 10 ng/mL mouse GM-CSF and seeded into 96 well plates. Different concentrations of screening drugs listed in Table 2 were dissolved in the same medium and were added to each well containing 0.5 millions of cells in 300 μL medium. Wells containing 0.5 million cells in 300 μL medium without addition of drugs were kept as untreated control. Three extra wells were charged with 300 μL medium without cells and drugs to be kept as background control. Cells were then incubated at 37° C. in a humidified 95% air 5% CO2 atmosphere for 24 hours to 48 hours. At the end of incubation, supernatant was collected for IL-10 ELISA and nitric oxide assay. Cells were washed twice with 300 μL PBS, and were then ready for the arginase assay.
IL-10 production by TAMs/MDSCs after in vitro incubation with different compounds was determined by ELISA assay following the protocol provided with the Mouse IL-10 DuoSet ELISA by R&D Systems. Briefly, a high affinity 96-well plate was coated with 100 μL of diluted capture antibody per well with the working concentration of 4 μg/mL in PBS without carrier protein. The plate was sealed, and incubated overnight at room temperature. Each well was aspirated, and washed three times with 400 μL of wash buffer (0.05% Tween®20 in PBS, pH 7.2-7.4) using a squirt bottle. After the last wash, remaining wash buffer was removed by inverting the plate and blotting it against clean paper towels. The plates were blocked by adding 300 μL of reagent diluent (1% BSA in PBS, pH 7.2-7.4) to each well, and incubated at room temperature for 1 hour. Aspiration/wash was repeated three times in the same manner as previously described. The plates were ready for sample addition. 100 μL of sample supernatant from TAMs/MDSCs in vitro screening were added to each well. The plate was covered with an adhesive strip and incubated for 2 hours at room temperature. The previously mentioned aspiration/wash procedure was repeated three times. 100 μL of the detection antibody with the concentration of 300 ng/mL in reagent diluent was added to each well. The plate was covered with a new adhesive strip and incubated for 2 hours at room temperature. The previously mentioned aspiration/wash procedure was repeated three times. 100 μL of working dilution of streptavidin-HRP (1 to 40 dilution in reagent dilute) was added to each well. The plate was covered and incubated for 20 minutes at room temperature in dark. The previously mentioned aspiration/wash procedure was repeated three times. 200 μL of substrate solution (one bag of silver and golden tablets of OPD in 20 mL of DI water) was added to each well. The plate was incubated for 20 minutes at room temperature in dark. 50 μL of stop solution (3M HCl) was added to each well. The plate was gently tapped to ensure thorough mixing. The IL-10 concentration was proportional to the optical density determined by a microplate reader at 492 nm.
For orientation: ELISA stands for enzyme-linked immunosorbent assay.

Test [2] has as its system human MDSCs. In words: IL-10 production by in vitro induced human MDSCs. The class given is cell-based. The following applies: cultured with drugs for 2 days. The procedure: Human PBMCs from healthy donor were isolated by density gradient centrifugation following standard procedure: […]
Blood was dilute blood with PBS (1:2 dilutions). 15 ml of Ficoll was transferred to a 50 ml tube. 35 ml of diluted blood was carefully placed over the Ficoll medium. The tube was centrifuged at 400 g for 30 min, at 24° C. without brake. After the centrifuge stoped, the tube was carefully removed from the centrifuge while not disturbing the layering. The PBMCs were carefully remove from the tube and transferred to a new 50 mL conical tube. Isolated PBMCs were washed with PBS and centrifuged at 300 g for 10 min. The supernatant was decanted. The pellet was washed once again in PBS and centrifuged at 200 g for 15 min. The isolated PBMCs were counted with the hemocytometer.
Isolated PBMCs were further purified by adhesion in serum free medium for 4 hours at 37° C. at a density of 3×10^6 cell/ml. After removing the suspension cells, adhered PBMCs were cultured in completed RPMI-1640 supplied with 10 ng/ml of IL-6 and GM-CSF for 7 days. Human MDSCs were then sorted by flow as CD33+ cells. Normal human macrophages were differentiated by co-culture PBMCs with completed RPMI-1640 medium for 7 days.
Human MDSCs were cultured with selected drugs for 2 days. The IL-10 production by MDSCs was measured and plotted vs drug concentrations.

Test [3] relates to TAMs/MDSCs. In words: Arginase assay after in vitro TAMs/MDSCs screening. The format is cell-based, mouse. The method, then:
as §1
(§2) Different concentrations of screening drugs listed in Table 2 were dissolved in the same medium and were added to each well containing 0.5 millions of cells in 300 μL medium. Wells containing 0.5 million cells in 300 μL medium without addition of drugs were kept as untreated control. Three extra wells were charged with 300 μL medium without cells and drugs to be kept as background control. […] At the end of incubation, supernatant was collected for IL-10 ELISA and nitric oxide assay. Cells were washed twice with 300 μL PBS, and were then ready for the arginase assay.
Briefly, after in vitro incubation of isolated TAMs/MDSCs with different drugs in 96 well plates, cells were washed twice with 300 μL PBS. […] Subsequently, 50 μL of the lysate solutions were transferred to a new V-shape 96 well plate. 50 μL of arginase activation solution (10 mM MnCl2/50 mM Tris.Cl (pH 7.5)) were added into the cell lysate. The enzyme was activated by heating for 10 min at 56° C. Arginine hydrolysis was conducted by incubating 25 μL of the activated solution with 25 μL of arginase substrate solution (0.5 M L-arginine (pH 9.7)) at 37° C. for 60 min with mild shaking. After cooling to room temperature, 10 μL of the reaction solution was then diluted into 90 μL of PBS. 10 μL of this diluted solution was transferred to a 96 well flat bottom clear plate. 200 μL of urea reagents were added to each well. After incubation in the dark at room temperature for 10 min, the urea concentration was measured at 520 nm by plate reader.

Test [4] has as its system TAMs/MDSCs. In words: Nitric oxide assay (Greiss reagent) after in vitro TAMs/MDSCs screening. The class given is cell-based, mouse. The method, then:
as §1, §2
Nitric oxide production was measured with Greiss reagent as reported in Je-In Youn, Srinivas Nagaraj, Michelle Collazo, and Dmitry I. Gabrilovich, Subsets of Myeloid-Derived Suppressor Cells in Tumor Bearing Mice′, J Immunol. […] Briefly, after in vitro incubation of TAMs/MDSCs with different drugs, 50 μL of supernatant from each well was transferred into a 96-well plat bottom clear plate. 20 μL of Greiss reagent and 30 μL of DI water were added to each well with 50 μL of supernatant. The reaction solution was kept in the dark at room temperature for 30 min prior to a plate reader measurement. The absorbance at 548 nm is correlated to concentration of nitric oxide produced by TAMs/MDSCs. Results are shown in FIG. 9, FIG. 10, FIG. 11 and FIG. 14.

Where [5] appears, read: co-culture with drug, absorbance at 548 nm.
The mark [6] stands for this setting: co-culture with drug, absorbance at 520 nm.

Read-outs that look alike come from different tables or passages of the source.

Consider `Nc1cccc2c1CN(C1CCC(=O)NC1=O)C2=O` (stereo not drawn) [lenalidomide], for which the “IL-10 production by TAMs/MDSCs in vitro” value in test [1] was “efficiently decrease IL-10 production”.

On to `CC[C@H](C)[C@H](NC(=O)[C@H]1CCCCN1C)C(=O)N(COC(=O)CC(C)C)[C@H](C[C@@H](OC(C)=O)c1nc(C(=O)N[C@@H](Cc2ccc(C)cc2)C[C@H](C)C(=O)O)cs1)C(C)C` [tubulysin], for which the “IL-10 production by TAMs/MDSCs in vitro” value in test [1] is “efficiently decrease IL-10 production”. Also, the “IL-10 production by human MDSCs” value in test [2] was “decreasing IL-10 production”. Besides, in test [3], the “arginase production by TAMs/MDSCs in vitro” value is “efficiently decrease arginase production”. Also, the “nitric oxide production by TAMs/MDSCs in vitro” value in test [4] was “efficiently decrease nitric oxide production”.

Take `CC1CCN=C(N)S1` (stereo not drawn) [AMT]: the “nitric oxide production by TAMs/MDSCs in vitro” value in test [4] (setting [5]) is “efficiently decrease nitric oxide production”.

For the compound `Cn1c(=O)n(-c2ccc(C(C)(C)C#N)cc2)c2c3cc(-c4cnc5ccccc5c4)ccc3ncc21` [BEZ235], the “IL-10 production by TAMs/MDSCs in vitro” value in test [1] was “efficiently decrease IL-10 production”. Further, in test [2], the “IL-10 production by human MDSCs” value was “decreasing IL-10 production”. Also, in test [3] (setting [6]), the “arginase production by TAMs/MDSCs in vitro” value is given as “efficiently decrease arginase production”. In addition, the “nitric oxide production by TAMs/MDSCs in vitro” value in test [4] (setting [5]) was “efficiently decrease nitric oxide production”.

Turning to `CC[C@]1(O)C[C@@H]2CN(CCc3c([nH]c4ccccc34)[C@@](C(=O)OC)(c3cc4c(cc3OC)N(C)[C@H]3[C@@](O)(C(=O)OC)[C@H](OC(C)=O)[C@]5(CC)C=CCN6CC[C@]43[C@@H]65)C2)C1` [vinblastine], the “IL-10 production by human MDSCs” value in test [2] was “decreasing IL-10 production”.

Consider `CCCCNc1nc(N)c2[nH]c(=O)n(Cc3ccc(C(=O)NCC(=O)NCCCNCCCCNCCCN)cc3)c2n1` [CL307], for which the “arginase production by TAMs/MDSCs in vitro” value in test [3] (setting [6]) is on record as “efficiently decrease arginase production”.

Consider `CO[C@H]1C[C@@H]2CC[C@@H](C)[C@@](O)(O2)C(=O)C(=O)N2CCCC[C@H]2C(=O)O[C@H]([C@H](C)C[C@@H]2CC[C@@H](OCCO)[C@H](OC)C2)CC(=O)[C@H](C)/C=C(\C)[C@@H](O)[C@@H](OC)C(=O)[C@H](C)C[C@H](C)/C=C/C=C/C=C/1C` [everolimus], for which the “nitric oxide production by TAMs/MDSCs in vitro” value in test [4] (setting [5]) is “efficiently decrease nitric oxide production”.

`CN(Cc1cnc2nc(N)nc(N)c2n1)c1ccc(C(=O)N[C@@H](CCC(=O)O)C(=O)O)cc1` [methotrexate]: the “nitric oxide production by TAMs/MDSCs in vitro” value in test [4] (setting [5]) is “efficiently decrease nitric oxide production”.

On to `NC(=O)c1cnc(NCCc2ccc(O)c(Cl)c2)nc1NCc1ccccc1` [AS1517499], for which, in test [1], the “IL-10 production by TAMs/MDSCs in vitro” value was “efficiently decrease IL-10 production”. The “arginase production by TAMs/MDSCs in vitro” value in test [3] (setting [6]) was “efficiently decrease arginase production”. The “nitric oxide production by TAMs/MDSCs in vitro” value in test [4] (setting [5]) is on record as “efficiently decrease nitric oxide production”.

`Cc1ccc(-n2nc(C(C)(C)C)cc2NC(=O)Nc2ccc(OCCN3CCOCC3)c3ccccc23)cc1` [BIRB796]: in test [1], the “IL-10 production by TAMs/MDSCs in vitro” value is given as “efficiently decrease IL-10 production”. Also, in test [3] (setting [6]), the “arginase production by TAMs/MDSCs in vitro” value is “efficiently decrease arginase production”. Also, in test [4] (setting [5]), the “nitric oxide production by TAMs/MDSCs in vitro” value is given as “efficiently decrease nitric oxide production”.

Turning to `Cc1c(CN2CCN(C(=O)[C@H](C)O)CC2)sc2c(N3CCOCC3)nc(-c3cnc(N)nc3)nc12` [GDC-0980], in test [1], the “IL-10 production by TAMs/MDSCs in vitro” value was “best candidate that can efficiently decrease IL-10”. In test [2], the “IL-10 production by human MDSCs” value is recorded as “decreasing IL-10 production”. Besides, the “arginase production by TAMs/MDSCs in vitro” value in test [3] (setting [6]) is on record as “best candidate that can efficiently decrease arginase”. In test [4] (setting [5]), the “nitric oxide production by TAMs/MDSCs in vitro” value was “best candidate that can efficiently decrease nitric oxide”.

The values are drawn from patent US20210170035A1, “METHOD OF TREATING CANCER BY TARGETING MYELOID-DERIVED SUPPRESSOR CELLS” (priority 2016, published 2021).
